Source: ChEMBL document CHEMBL4017496 (J Med Chem, 2017)
Calls of active or inactive are those of the source. The rule behind the calls is not given here.

Tests used:
[1] = Induction of adipogenesis in human bone marrow-derived mesenchymal stem cells assessed as adiponectin level at 4 uM measured on day 7 after 48 hrs by ELISA; format: functional, Mesenchymal stem cell
[2] = target: T1, Oxysterols receptor LXR-beta (Homo sapiens) (UniProt P55055); assay: Binding affinity to human LXRbeta at 4 uM by TR-FRET assay
T1 sequence (whole entry): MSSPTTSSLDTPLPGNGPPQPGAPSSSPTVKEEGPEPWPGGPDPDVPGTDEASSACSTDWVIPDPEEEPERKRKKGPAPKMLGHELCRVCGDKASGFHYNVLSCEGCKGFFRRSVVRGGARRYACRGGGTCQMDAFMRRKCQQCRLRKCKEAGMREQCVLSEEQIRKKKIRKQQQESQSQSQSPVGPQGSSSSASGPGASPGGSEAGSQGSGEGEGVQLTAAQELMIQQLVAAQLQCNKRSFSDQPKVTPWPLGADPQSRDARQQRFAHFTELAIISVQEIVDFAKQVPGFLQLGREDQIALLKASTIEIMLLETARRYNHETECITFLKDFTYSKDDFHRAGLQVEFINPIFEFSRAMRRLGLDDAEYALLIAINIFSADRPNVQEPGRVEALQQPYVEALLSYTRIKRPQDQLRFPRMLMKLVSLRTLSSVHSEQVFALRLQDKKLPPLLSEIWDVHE

Mus musculus [3] = assay: Antidiabetic activity in STZ-induced diabetic C57BL/6J mouse assessed as insulin sensitivity by measuring reduction of serum lactate level at 20 mg/kg,po for 5 days; format: functional, organism-based
[4] = Induction of adipogenesis in human bone marrow-derived mesenchymal stem cells assessed as adiponectin level at 20 uM measured on day 7 after 48 hrs by ELISA; format: functional, Mesenchymal stem cell
Mus musculus [5] = assay: Antidiabetic activity in STZ-induced diabetic C57BL/6J mouse assessed as insulin sensitivity by measuring reduction of serum triglyceride level at 20 mg/kg,po for 5 days; format: functional, organism-based
[6] = target: T2, Peroxisome proliferator-activated receptor gamma (Homo sapiens) (UniProt P37231); assay: Displacement of Fluormone-Pan-PPAR Green from human GST-tagged PPARgamma LBD at 20 uM by TR-FRET assay relative to control
T2 sequence (whole entry): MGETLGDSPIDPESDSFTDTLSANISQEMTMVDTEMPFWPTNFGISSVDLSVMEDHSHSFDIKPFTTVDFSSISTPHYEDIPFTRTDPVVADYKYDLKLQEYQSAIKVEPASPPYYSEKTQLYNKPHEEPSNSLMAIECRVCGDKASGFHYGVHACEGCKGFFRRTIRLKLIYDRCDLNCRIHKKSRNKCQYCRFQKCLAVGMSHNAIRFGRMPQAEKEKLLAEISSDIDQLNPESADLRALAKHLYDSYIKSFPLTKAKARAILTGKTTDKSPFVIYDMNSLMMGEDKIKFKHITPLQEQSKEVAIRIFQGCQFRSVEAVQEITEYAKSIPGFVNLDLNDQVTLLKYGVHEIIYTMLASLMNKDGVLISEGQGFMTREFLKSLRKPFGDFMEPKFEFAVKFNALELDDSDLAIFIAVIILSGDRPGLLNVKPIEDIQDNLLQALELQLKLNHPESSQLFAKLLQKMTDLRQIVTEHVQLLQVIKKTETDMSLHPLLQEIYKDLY

[7] = target: Cyclin-dependent kinase 5/CDK5 activator 1 (Homo sapiens) (UniProt Q00535+Q15078); assay: Inhibition of human CDK5/p25 up to 20 uM using histone H1 as substrate after 40 mins in presence of [gamma32P]ATP by scintillation counting; format: protein-complex assay
Chain of Cyclin-dependent kinase 5/CDK5 activator 1 (Homo sapiens) (Q00535 whole entry): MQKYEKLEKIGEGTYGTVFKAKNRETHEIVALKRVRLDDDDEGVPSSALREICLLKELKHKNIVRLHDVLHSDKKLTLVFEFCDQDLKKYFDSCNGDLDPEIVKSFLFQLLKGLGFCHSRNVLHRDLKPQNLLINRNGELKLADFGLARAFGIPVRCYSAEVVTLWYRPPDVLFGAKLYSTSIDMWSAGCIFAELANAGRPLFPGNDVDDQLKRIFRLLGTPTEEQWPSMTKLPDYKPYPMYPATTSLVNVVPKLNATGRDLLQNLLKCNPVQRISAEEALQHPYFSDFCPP
Chain of Cyclin-dependent kinase 5/CDK5 activator 1 (Homo sapiens) (Q15078 99-307 partner limits assumed): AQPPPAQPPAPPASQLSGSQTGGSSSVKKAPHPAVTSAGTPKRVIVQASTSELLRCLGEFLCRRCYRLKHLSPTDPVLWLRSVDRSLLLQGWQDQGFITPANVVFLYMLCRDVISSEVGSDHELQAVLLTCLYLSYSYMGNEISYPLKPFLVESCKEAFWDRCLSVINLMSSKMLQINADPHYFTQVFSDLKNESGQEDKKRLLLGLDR

Mesenchymal stem cell [8] = assay: Induction of adipogenesis in human bone marrow-derived mesenchymal stem cells assessed as increase in number and size of lipid droplets at 20 uM after 7 days in presence of IDX by oil red O staining based inverted microscopic method; format: functional
Mesenchymal stem cell [9] = assay: Induction of adipogenesis in human bone marrow-derived mesenchymal stem cells assessed as increase in the production of adiponectin measured on day 7 after 48 hrs by ELISA; format: functional, cell-based
[10] = target: T2, Peroxisome proliferator-activated receptor gamma (Homo sapiens); assay: Transactivation of human PPARgamma expressed in African green monkey CV1 cells at 10 uM by luciferase reporter gene assay relative to control; format: cell-based

CNC(=O)[C@H]1O[C@@H](n2cnc3c(NCc4cccc(I)c4)ncnc32)[C@H](O)[C@@H]1O [IB-MECA]
Activity [1]: 117 pg/mL
Activity [2]: inactive
Activity (Mus musculus [3]): Active
Activity [4]: 216 pg/mL
Activity (Mus musculus [5]): Active
inhibition [6]: 22.2%
inhibition [7]: inactive
Activity (Mesenchymal stem cell [8]): Active
Activity (Mesenchymal stem cell [9]): Dose-dependent effect
Activity [10]: 29.9%
